# Measurements published in patent US9157105B2, “Biosynthesis of CMP-legionaminic acid from fructose-6-P, and respective pathway intermediates, using novel GDP-linked precursors” (priority 2008, dated 2015).
# Assays:
# [1] = tested on: LegC (Cj1320, PLP-dependent aminotransferase); assay: LegC aminotransferase reaction; assay type: biochemical, Campylobacter jejuni 11168; conditions: L-Glu
# Description: (§1) Enzymatic reactions were performed for 4.5 h at 37° C., and then overnight at 25° C., with approximately 200 μg ml^−1 respective protein concentration using chemicals from Sigma (unless otherwise indicated). GDP-glucosamine biosynthesis. The ‘one-pot’ enzymatic synthesis of GDP-GlcN from Fru-6-P (I→IV) was accomplished using a 3 ml reaction containing His6PtmF, PtmAHis6, PgmLHis6, His6PtmE, 5 mM Fru-6-P (I), 10 mM L-Gln, 1 mM DTT, 5 mM MgCl2, 0.8 U ml^−1 pyrophosphatase, and 2.5 mM GTP in 25 mM Tris pH 7.5. Large-scale enzymatic synthesis of GDP-GlcN (IV) was accomplished using a 12 ml reaction containing 50 mM Tris pH 7.5, 1 mM GTP, 1 mM MgCl2, 0.8 U ml^−1 pyrophosphatase, 1.2 mM GlcN-1-P (III) and approximately 4.8 mg of His6PtmE. The large-scale enzymatic synthesis of GDP-GlcNAc was performed similar to that above, except the scale was increased five-fold and GlcNAc-1-P was used in place of GlcN-1-P (III). […] In addition, the substrate flexibility of His6LegG was assessed using a 300 μl reaction containing 40 μg His6LegG, 25 mM sodium phosphate pH 7.3, 25 mM NaCl, and 0.75 mM UDP-2,4-diacetamido-2,4,6-trideoxy-α-D-Glc, with incubation at 37° C. for 1.5 h, and then overnight at 25° C. […] Quantification of NDP-sugar preparations was determined using the molar extinction coefficients of CMP (ε260=7,400), GDP (ε260=11,500), TDP (ε260=8,700), and UDP (ε260=10,000). […]
# [2] = tested on: LegB (Cj1319, 4,6-dehydratase); assay: LegB C4,6 dehydratase reaction with NDP-sugars; assay type: biochemical, Campylobacter jejuni 11168
# Description: (§2) Enzymatic reactions were performed for 4.5 h at 37° C., and then overnight at 25° C., with approximately 200 μg ml^−1 respective protein concentration using chemicals from Sigma (unless otherwise indicated). GDP-glucosamine biosynthesis. The ‘one-pot’ enzymatic synthesis of GDP-GlcN from Fru-6-P (I→IV) was accomplished using a 3 ml reaction containing His6PtmF, PtmAHis6, PgmLHis6, His6PtmE, 5 mM Fru-6-P (I), 10 mM L-Gln, 1 mM DTT, 5 mM MgCl2, 0.8 U ml^−1 pyrophosphatase, and 2.5 mM GTP in 25 mM Tris pH 7.5. Large-scale enzymatic synthesis of GDP-GlcN (IV) was accomplished using a 12 ml reaction containing 50 mM Tris pH 7.5, 1 mM GTP, 1 mM MgCl2, 0.8 U ml^−1 pyrophosphatase, 1.2 mM GlcN-1-P (III) and approximately 4.8 mg of His6PtmE. The large-scale enzymatic synthesis of GDP-GlcNAc was performed similar to that above, except the scale was increased five-fold and GlcNAc-1-P was used in place of GlcN-1-P (III). Assessment of His6PtmE substrate specificity was accomplished using 9 reactions, 80 μl each, containing 50 mM Tris pH 7.5, 2 mM MgCl2, 50 μg His6PtmE, and various combinations of 10 mM sugar-1-P (GalN-1-P, GlcN-1-P or GlcNAc-1-P) and 0.2 mM NTP (CTP, GTP, or TTP). Conversion of GDP-GlcN to GDP-GlcNAc. The His6GlmU reaction was performed using 1 mM GDP-GlcN (IV), 1.2 mM acetyl-CoA and His6GlmU in 25 mM sodium phosphate pH 7.8, 25 mM NaCl, 10 mM β-mercaptoethanol. In addition, a control reaction was performed containing 1 mM GlcN-1-P (III) instead of IV. Biosynthesis of legionaminic acid from GDP-GlcNAc. The stepwise enzymatic synthesis of intermediates or products was accomplished in 2 stages (V→VI→VII→VIII, and then VIII→IX→X) using 1 mM of V, 0.5 mM NAD, 0.8 mM PLP, 8 mM L-Glu, 1.2 mM acetyl-CoA, 1.2 mM PEP, LegBHis6, His6LegC, His6LegH, His6LegG, and His6LegI as appropriate, in 25 mM sodium phosphate pH 7.3, 25 mM NaCl. Assessment of His6LegG activity involved monitoring the reaction kinetics by ^1H NMR (see NMR spectroscopy) for 75 min using 0.75 mM GDP-2,4-diacetamido-2,4,6-trideoxy-α-D-Glc (VIII), 4 μg His6LegG in 200 μl of 25 mM sodium phosphate pH 7.3, 25 mM NaCl at 25° C. In addition, the substrate flexibility of His6LegG was assessed using a 300 μl reaction containing 40 μg His6LegG, 25 mM sodium phosphate pH 7.3, 25 mM NaCl, and 0.75 mM UDP-2,4-diacetamido-2,4,6-trideoxy-α-D-Glc, with incubation at 37° C. for 1.5 h, and then overnight at 25° C. Biosynthesis of CMP-legionaminic acid. The CMP-activation of legionaminic acid (X→XI) was performed using a 20 ml reaction containing approximately 0.2 mM of X, 50 mM MgCl2, 3 mM CTP, and 15 mg of LegFHis6 in 25 mM sodium phosphate pH 7.8, 25 mM NaCl, with incubation at 37° C. for 5 h, and then 25° C. for 72 h. Metabolite purification. Typically, reactions were passed through an Amicon Ultra-15 (10,000 molecular weight cut-off) or Ultra-4 (5,000 molecular weight cut-off) filter membrane before analysis. As required, NDP-sugar preparations (GDP-Glc, GDP-GlcN, GDP-GlcNAc, CDP-GlcNAc, TDP-GlcNAc, and CMP-Leg) were lyophilized and desalted/purified using a Superdex Peptide 10/300 GL (Amersham Biosciences) column in 25 mM ammonium bicarbonate, pH 7.9. For further purity, the NDP-sugar samples above were subjected to anion-exchange chromatography (Mono Q 4.6/100 PE, Amersham Biosciences) using ammonium bicarbonate pH 7.9. Quantification of NDP-sugar preparations was determined using the molar extinction coefficients of CMP (ε260=7,400), GDP (ε260=11,500), TDP (ε260=8,700), and UDP (ε260=10,000).
# CE analysis was performed using either a P/ACE 5510 or P/ACE MDQ system (Beckman Instruments, Mississauga, Ont) with diode array detection. The capillaries were bare silica 50 μm×50 cm, with a detector at 50 cm, and the running buffer was 25 mM sodium tetraborate pH 9.4. Samples were introduced by pressure injection for 6 sec, and the separation was performed at 18 kV for 20 min. Peak integration was done using the Beckman P/ACE station software.
# [3] = target: T1, His6LegG (Cj1328, NDP-sugar hydrolase/2-epimerase) (Campylobacter jejuni subsp. jejuni serotype O:2, UniProt Q0P8T0); assay: His6LegG activity and substrate flexibility (1H NMR, CE); assay type: biochemical, Campylobacter jejuni 11168
# T1 construct: made in house; host or cells: E. coli BL21[DE3]
# Description: as §2, with “The CMP-activation of legionaminic acid (X→XI) was performed using a 20 ml reaction containing approximately 0.2 mM of X, 50 mM MgCl2, 3 mM CTP, and 15 mg of LegFHis6 in 25 mM sodium phosphate pH 7.8, 25 mM NaCl, with incubation at 37° C. for 5 h, and then 25° C. for 72 h. Metabolite purification. Typically, reactions were passed through an Amicon Ultra-15 (10,000 molecular weight cut-off) or Ultra-4 (5,000 molecular weight cut-off) filter membrane before analysis. As required, NDP-sugar preparations (GDP-Glc, GDP-GlcN, GDP-GlcNAc, CDP-GlcNAc, TDP-GlcNAc, and CMP-Leg) were lyophilized and desalted/purified using a Superdex Peptide 10/300 GL (Amersham Biosciences) column in 25 mM ammonium bicarbonate, pH 7.9. For further purity, the NDP-sugar samples above were subjected to anion-exchange chromatography (Mono Q 4.6/100 PE, Amersham Biosciences) using ammonium bicarbonate pH 7.9.” left out, “(ε260=10,000). […]” for “(ε260=10,000).”
# [4] = tested on: LegH (Cj1298, N-acetyltransferase); assay: LegH N-acetyltransferase reaction; assay type: biochemical, Campylobacter jejuni 11168; conditions: acetyl-CoA
# Description: as §1
# [5] = target: T2, PglD (N-acetyltransferase) (Campylobacter jejuni subsp. jejuni serotype O:2, UniProt Q0P9D1); assay: PglD N-acetyltransferase reaction; assay type: biochemical; conditions: acetyl-CoA
# T2 construct: His6 (C); made in house; host or cells: E. coli BL21[DE3]
# [6] = target: T3, His6GlmU (Cj0821, N-acetyltransferase) (Campylobacter jejuni subsp. jejuni serotype O:2, UniProt Q9PPA2); assay: His6GlmU N-acetylation reaction (CE-MS); assay type: biochemical, Campylobacter jejuni 11168; conditions: 1 mM substrate, 1.2 mM acetyl-CoA
# T3 construct: made in house; host or cells: E. coli BL21[DE3]
# Description: as §1
# T1 sequence (Q0P8T0 whole entry): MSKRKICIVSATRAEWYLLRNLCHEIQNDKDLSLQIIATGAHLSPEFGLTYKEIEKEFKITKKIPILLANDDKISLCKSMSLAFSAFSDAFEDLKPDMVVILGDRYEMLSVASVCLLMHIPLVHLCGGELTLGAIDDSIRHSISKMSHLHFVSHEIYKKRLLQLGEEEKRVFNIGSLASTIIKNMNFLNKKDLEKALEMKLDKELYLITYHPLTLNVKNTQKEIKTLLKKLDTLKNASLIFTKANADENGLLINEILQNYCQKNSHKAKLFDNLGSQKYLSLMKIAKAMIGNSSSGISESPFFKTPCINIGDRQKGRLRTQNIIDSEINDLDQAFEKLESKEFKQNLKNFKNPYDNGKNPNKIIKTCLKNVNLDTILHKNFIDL
# T3 sequence (Q9PPA2 whole entry): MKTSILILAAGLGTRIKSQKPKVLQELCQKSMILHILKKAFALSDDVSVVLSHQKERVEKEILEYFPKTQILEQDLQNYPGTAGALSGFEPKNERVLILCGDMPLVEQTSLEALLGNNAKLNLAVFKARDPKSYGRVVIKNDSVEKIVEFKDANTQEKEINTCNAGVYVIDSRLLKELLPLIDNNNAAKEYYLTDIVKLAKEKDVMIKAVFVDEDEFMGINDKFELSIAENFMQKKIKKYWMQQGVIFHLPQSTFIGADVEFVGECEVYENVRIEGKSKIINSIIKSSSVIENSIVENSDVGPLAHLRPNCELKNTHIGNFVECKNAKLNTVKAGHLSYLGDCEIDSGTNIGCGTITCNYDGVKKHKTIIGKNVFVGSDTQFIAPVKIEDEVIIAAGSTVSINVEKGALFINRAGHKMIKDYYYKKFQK
# T2 sequence (Q0P9D1 whole entry): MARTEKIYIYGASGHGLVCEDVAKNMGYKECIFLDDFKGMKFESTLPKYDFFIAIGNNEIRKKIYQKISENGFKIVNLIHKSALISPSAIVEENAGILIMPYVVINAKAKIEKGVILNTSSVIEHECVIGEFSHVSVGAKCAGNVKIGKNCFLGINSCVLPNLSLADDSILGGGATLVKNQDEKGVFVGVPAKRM
compound,measurement,setting,value
"CC(=O)N[C@H]1[C@@H](OP(=O)(O)OP(=O)(O)OC[C@H]2O[C@@H](n3cnc4c(=O)[nH]c(N)nc43)[C@H](O)[C@@H]2O)O[C@H](C)C(=O)[C@@H]1O [VI, GDP-2-acetamido-2,6-dideoxy-α-D-xylo-hexos-4-ulose]",LegC aminotransfer of substrate,[1],efficient aminotransfer
"CC(=O)N[C@H]1[C@@H](OP(=O)(O)OP(=O)(O)OC[C@H]2O[C@@H](n3cnc4c(=O)[nH]c(N)nc43)[C@H](O)[C@@H]2O)O[C@H](CO)[C@@H](O)[C@@H]1O [V, GDP-N-acetyl-α-D-glucosamine]","LegB C4,6 dehydration of substrate",[2]; NAD+ added exogenously,efficient turnover
same,"LegB C4,6 dehydration of substrate","[2]; reaction with substrate and LegB only, no exogenous NAD(P)+",failed
same,LegG turnover of substrate assessed by CE,[3],moderate efficiency
"CC(=O)NC1C(OP(=O)(O)OP(=O)(O)OCC2OC(n3cnc4c(=O)[nH]c(N)nc43)C(O)C2O)OC(C)C(N)C1O [VII, GDP-4-amino-4,6-dideoxy-N-acetyl-α-D-glucosamine]",LegH conversion of VII to VIII,[4],100%
same,PglD N-acetyltransfer of substrate,[5],able to catalyze N-acetyltransfer
"Nc1nc2c(ncn2C2OC(COP(=O)(O)OP(=O)(O)OC3OC(CO)C(O)C(O)C3N)C(O)C2O)c(=O)[nH]1 [IV, GDP-α-D-glucosamine]",LegB reaction product formation,[2]; in the presence or absence of NAD(P)+,did not yield discernable product
same,GlmU N-acetylation of substrate (conversion of IV to V),[6],not to completion
